# Results from ChEMBL document CHEMBL2057124, “Benzoheterocyclic amodiaquine analogues with potent antiplasmodial activity: synthesis and pharmacological evaluation” (Bioorg Med Chem Lett, 2012).
# Columns and labels:
# L6 = experiment: Cytotoxicity against rat L6 cells after 72 hrs by alamar blue assay; format: cell-based; conditions: L6, 72 h
# Plasmodium falciparum [1] = experiment: Antiplasmodial activity against chloroquine-resistant Plasmodium falciparum K1 assessed as [3H]hypoxanthine incorporation after 24 hrs by scintillation counting; format: functional, organism-based
# [2] = Selectivity ratio of IC50 for rat L6 cells to IC50 for […]; format: ADME, cell-based; conditions: read-out: Ratio IC50
# Plasmodium falciparum [3] = experiment: Antiplasmodial activity against chloroquine-resistant Plasmodium falciparum W2 infected in human erythrocytes after 48 hrs by Geimsa staining; format: functional, organism-based; conditions: W2, 48 h
# Plasmodium falciparum [4] = experiment: Resistance ratio of IC50 for chloroquine-resistance Plasmodium falciparum K1 to IC50 for […]; format: functional
SMILES,IC50 (L6) [µM],IC50 (Plasmodium falciparum [1]) [nM],selectivity ratio [2],IC50 (Plasmodium falciparum [3]) [nM],Ratio IC50 (Plasmodium falciparum [4])
Clc1ccc2c(Nc3ccc4sc(NCCN5CCOCC5)nc4c3)ccnc2c1,4.67,25,117,40,–
Clc1ccc2c(Nc3ccc4oc(NCCN5CCCC5)nc4c3)ccnc2c1,8.7,22,1090,8,2.8
CCNc1nc2cc(Nc3ccnc4cc(Cl)ccc34)ccc2o1,16.4,921,33.3,491,–
Clc1ccc2c(Nc3ccc(NCCN4CCOCC4)nc3)ccnc2c1,47.4,73,1160,41,–
CCN(CC)Cc1cc(Nc2ccnc3cc(Cl)ccc23)ccc1O,–,8,–,5,–
Clc1ccc2c(Nc3ccc4sc(NCCN5CCCC5)nc4c3)ccnc2c1,5.12,14,426,12,1.2
Clc1ccc2c(Nc3ccc4sc(NCCN5CCCCC5)nc4c3)ccnc2c1,3.54,7,272,13,–
CCN(CC)CCNc1nc2cc(Nc3ccnc4cc(Cl)ccc34)ccc2[nH]1,15.3,827,76.4,200,–
CCNc1nc2cc(Nc3ccnc4cc(Cl)ccc34)ccc2[nH]1,5.71,249,11.4,501,–
CC(C)(C)Nc1nc2cc(Nc3ccnc4cc(Cl)ccc34)ccc2s1,4.13,917,3.56,1160,–
Clc1ccc2c(Nc3ccc4[nH]c(NCCN5CCCCC5)nc4c3)ccnc2c1,5.25,90,1.15,4580,–
Clc1ccc2c(Nc3ccc(NCCN4CCCC4)nc3)ccnc2c1,18.6,92,885,21,4.4
CCN(CC)CCNc1nc2cc(Nc3ccnc4cc(Cl)ccc34)ccc2s1,–,–,–,11,–
